Values of other authors in paper PMC8985968, “Purification and characterization of antifungal lipopeptide produced by Bacillus velezensis isolated from raw honey” (PLoS ONE, 2022).

Tests used:
[1] = test system: Aspergillus, Fusarium, Chrysosporium, Candida albicans, Trichosporium, Alternaria, and Cladosporium; conditions: isolated from crude extract of B. subtilis
Excerpt: In a study by Pathak and Keharia (2014), iturin isomers and surfactin families were isolated from crude extract of B. subtilis. […] Similar t ...

[2] = test system: mouse models
Description: The safety of the producer strains and their products need to be evaluated to achieve broader application of iturin A produced by Bacillus species. […] B. velezensis FZB42 type strain, which is closely related to our isolates, was also evaluated by US Environmental Protection Agency (EPA) and considered n ...

## Iturin A2
[1]
  Antifungal spectrum: broad spectrum antifungal activities

## Iturin A3/A4/A5
[1]
  Antifungal spectrum: broad spectrum antifungal activities

## iturin
[2]; intragastric, 7-day, 5000 mg/kg, no significant damage to liver, kidney, or small intestines
  Acute toxicity test: safe and non-toxic
[2]; intragastric, 28-day, 2000 mg/kg, no significant damage to liver, kidney, or small intestines
  Subacute toxicity test: safe and non-toxic

## iturin A
[2]; mouse models
  Organ-specific toxicity after discontinuation of treatment: reversible
  Tissue deposition of iturin A: deposited in liver, lung, and spleen
[2]; preliminary toxicology study, acute and subacute
  Toxicity of iturin A in mouse models: can induce hepatotoxicity
